Here are results for eleven molecules from patent EP2127664A1, “Change of the load state of MHC molecules by dipeptides” (priority 2008, dated 2009).

Entries after “also recorded” stand apart in the source; their conditions may differ. Peptide text beside a SMILES is read from it.

In test [1] the target is T1, soluble HLA-DR1 (DRA*0101, DRB1*0101) (Homo sapiens, UniProt P01903+P01911, A100R/D57E/F55L/F60I/F76Y/I96L/L162R/M171V/P40L/Q125E/R42F/V115G/Y59C).
T1 construct: Recombinant soluble HLA-DR1 (DRA*0101, DRB1*0101) (Sloan, V. S (1995) Nature 375, 802-806) was produced in S2 insect cells; made in house; host or cells: S2 insect cells
The test can be described thus: Peptide loading of soluble HLA-DR1 with HA306-318 (ELISA). The class given is biochemical. The conditions noted are these: for complex formation between HA306-318 and soluble HLA-DR1 (catalytic activity): titrated amounts of dipeptide, 100nM HLA-DR1, phosphate-buffered saline pH 7.4, 37 °C, 1 h; for catalytic rate enhancement: mean activity, soluble HLA-DR1 (DRB1*0101). From the text: Antibodies and soluble HLA-DR1. The HLA-DR-specific antibody L243 (ATCC) was purified.
Background: In an ELISA, binding on a coated surface is turned into a signal by an enzyme label.

The target of test [2] is T2, CLIP/HLA-DR1 complex (Homo sapiens, UniProt P01903+P01911, A100R/D57E/F55L/F60I/F76Y/I96L/L162R/M171V/P40L/Q125E/R42F/V115G/Y59C).
T2 construct: soluble class II MHC molecules were preloaded with the CLIP peptide; made in house; host or cells: S2 insect cells
Description: Ligand exchange / complex dissociation of CLIP/HLA-DR1 (ELISA). The class given is biochemical. Conditions: 10 mM dipeptide; in the presence of free HA306-318. The procedure:
Ligand-exchange of soluble HLA-DR molecules- In vitro ligand exchange experiments were carried out by loading 1,5 µM of HLA-DR1 with biotinylated IC106-120, for 20 hrs (Höpner et al., (2006), supra) in presence of 5% ethanol. HLA-DR1:IC complex was diluted to 1:15 and incubated with 200µg/ml HA peptide in presence and absence of 10mM dipeptide.

Test [3] concerns HLA-DR1 restricted mouse T cell hybridoma EvHA/X5. The test can be described thus: In vitro T cell assay with HA306-318 and peptide-MLE. The class given is cell-based. From the text:
(§1) Cells. Stable transfection of L929 fibroblasts (ATCC) were done to generate L101 (DRB1*0101 b86 G) or L101 (β86V) respectively (Höpner et al., (2006), supra). Epstein-Barr virus-transformed B cell 721.221(DRB1*0101) was obtained from ATCC. EvHA/X5 (DRB1*0101-restricted, HA306-318-specific) were derived from HLA-DR1tg mice (Rosloniec, E. F. (1997) J. Exp. Med. 185, 1113-1122) and were generated after fusion of the CD4+ EvHA T cell line with the BW cell (Höpner et al., (2006), supra). CD4+ T cell line PD2 , HLA-DR1 restricted and HA 306-318 specific (Falk K, et al., (2000) Eur. J. Immunol. 30, 3012-3020), ABL 908-922-specific T cell hybridoma SaABL/G2 was generated after fusing a CD4+ T cell line generated in HLA-DR1 […] mice with the BW cell.
(§2) T cell Assays. For pulse wash experiments 5x 10^4 HLA-DR-expressing cells/well were loaded for 4 h with antigenic peptides in the presence and absence of dipeptides as described above. Cells were then washed, and 5x10^4 T cells were added to the culture, which was then incubated for 24 h in Dulbecco's modified Eagle's medium, 5% fetal calf serum in 96-well U-bottom plates. However for permanent assay, HLA-DR expressing cells, T cells and dipeptide stayed together in the reaction for 48 hrs. T cell response was determined in a secondary assay with CTL-L cells (ATCC) as described previously (Falk, K., (2002) J. Biol. Chem. 277, 2709-2715). In experiments with PD-2 cell line, HTR's (as APCs) were pre-irradiated for 520 sec and then used for experiments.

For test [4], the system named is human T cell line PD2. Described as above. The class given is cell-based.
Description: as §1, §2

The target in test [5] is T3, fibroblast cells transfected with mutated HLA-DR1 (β86G→V) (Homo sapiens, UniProt P01903+P01911, A100R/D57E/F55L/F60I/F76Y/I96L/L162R/M171V/P40L/Q125E/R42F/Y59C).
T3 construct: transfected with full length versions of wt HLA-DR1 (β86G) and mutated HLA-DR1 (β86G→V); expressed in transfected cells
Description: Peptide loading of cell surface MHC molecules with ABL908-922 (FACS). The class given is cell-based. Conditions: fibroblasts expressing HLA-DR1 (β86G→V).
Description: as §1
Peptide Loading of Cell Surface MHC Molecules. For loading experiments biotinylated antigenic peptides were incubated with 10 x 10^4 HLA-DR expressing cells/well in presence and absence of dipeptides at 37 °C in Dulbecco's modified Eagle's medium, 5% fetal calf serum in a 96 well V bottom plate for 4 hrs. FACS analysis was done as described previously (Höpner et al., (2006), supra).

Test [6] deals with CD4+ T cell hybridoma specific for the ABL epitope (SaABL/G5). Description: T cell assay, ABL908-922-loaded fibroblasts expressing HLA-DR1 (β86G→V). The class given is cell-based, mice. The conditions noted are these: fibroblasts with mutated HLA-DR1 (β86G→V) loaded in the presence of dipeptides.
Description: as §1
as §2, with “In experiments with PD-2 cell line, HTR's (as APCs) were pre-irradiated for 520 sec and then used for experiments.” left out

Test [7] addresses T4, HLA-DR1 (β86G→V) (Homo sapiens, UniProt P01903+P01911, A100R/D57E/F55L/F60I/F76Y/I96L/L162R/M171V/P40L/Q125E/R42F/Y59C).
T4 construct: Recombinant soluble HLA-DR1 molecules were mutated at position 86; made in house; host or cells: S2 insect cells (printed for the recombinant soluble HLA-DR1; not repeated for the mutants)
Description: Loading of soluble mutated HLA-DR1 with ABL908-922 (ELISA). The class given is biochemical. The conditions noted are these: titrated amounts of dipeptide.
Description: Peptide loading/ of Soluble HLA-DR Molecules- For in vitro loading experiments 100nM HLA-DR1 was incubated with 40 µg/ml (phosphate-buffered saline, pH 7.4, 37 °C, 1 h).

Where [8] appears, read: in the presence of Ac-FR-NH2 (5 mM per Fig. 5 legend).
The mark [9] stands for this setting: in the absence of the dipeptide catalyst.

On to `CC(=O)N[C@@H](Cc1ccc(O)cc1)C(=O)N[C@@H](CCCNC(=N)N)C(=O)O` [Ac-YR], for which, in test [1], the “complex formation between HA306-318 and soluble HLA-DR1 (catalytic activity)” value is given as “partial effect”.

On to `N=C(N)NCCC[C@H](NC(=O)[C@@H](N)Cc1ccc(O)cc1)C(N)=O` [YR-NH2], for which the “complex formation between HA306-318 and soluble HLA-DR1 (catalytic activity)” value in test [1] is “partial effect”.

Consider `CC(=O)N[C@@H](C)C(=O)N[C@@H](CCCNC(=N)N)C(N)=O` [Ac-AR-NH2] (Ac-Ala-Arg-NH2), for which the “complex formation between HA306-318 and soluble HLA-DR1 (catalytic activity)” value in test [1] is “completely inactive; also recorded: abrogated the effect”.

Consider `C[C@H](N)C(=O)N[C@@H](CCCNC(=N)N)C(=O)O` [AR] (H-Ala-Arg-OH), for which the “complex formation between HA306-318 and soluble HLA-DR1 (catalytic activity)” value in test [1] is “No effect”.

In the case of `CC(=O)N[C@@H](Cc1ccc(O)cc1)C(=O)N[C@@H](CCCNC(=N)N)C(N)=O` [Ac-YR-NH2], the “complex dissociation of CLIP/HLA-DR1” value in test [2] is reported as “weaker dissociation”. For the same molecule, in test [1] (complex formation between HA306-318 and HLA-DR1), the “increase in the catalytic activity compared to the unmodified YR peptide” value is given as “more than 10 fold”. Further, the catalytic rate enhancement in test [1] amounted to 3.39 mM⁻¹.

For `CC(=O)N[C@@H](Cc1ccccc1)C(=O)N[C@@H](CCCNC(=N)N)C(N)=O` [Ac-FR-NH2] (Ac-Phe-Arg-NH2), the “half-maximal response (concentration of HA306-318)” value amounted to 0.65 ng/mL in test [3] (setting [8]) and 0.23 ng/mL in test [4] (setting [8]). In addition, in test [1] (in the presence of 1 mM), the “on-rate is amplified by a factor of” value came to 7.08. The catalytic rate enhancement in test [1] turned out to be 6.08 mM⁻¹.

With “HA306-318: high-affinity peptide ligand / antigen HA306-318 (PKYVKQNTLKLAT) [reference compound]”, the “half-maximal response (concentration of HA306-318)” value was found to be 31 ng/mL in test [3] (setting [9]) and 14 ng/mL in test [4] (setting [9]).

As to `CC(=O)N[C@@H](Cc1c[nH]c2ccccc12)C(=O)N[C@@H](CCCNC(=N)N)C(N)=O` [Ac-WR-NH2] (Ac-Trp-Arg-NH2), the catalytic rate enhancement in test [1] came to 3.54 mM⁻¹.

For `N=C(N)NCCC[C@H](NC(=O)[C@@H](N)Cc1ccc(O)cc1)C(=O)O` [YR], the “complex formation between HA306-318 and soluble HLA-DR1 (catalytic activity)” value in test [1] was “accelerated the MHC-loading with the HA306-318 peptide in a dose-dependent way”.

Consider `CC(=O)N[C@@H](CC(C)C)C(=O)N[C@@H](CCCNC(=N)N)C(N)=O` [Ac-LR-NH2], for which the “effect on the HA306-318-specific T cell response” value in test [3] (compared with Ac-FR-NH2) and in test [4] (compared with Ac-FR-NH2) was “weaker effects” in each case. Also, in test [5], the “loading of cells with ABL908-922 determined by FACS” value is given as “most effective”. Besides, the “ABL908-922-specific T cell stimulation” value in test [6] is “most efficient ABL908-922-specific stimulation”. Further, the “enhancement of ABL908-922 loading” value in test [7] is reported as “best enhancement”. In addition, the “complex dissociation of CLIP/HLA-DR1” value in test [2] is recorded as “weaker dissociation”.

As to `CC(=O)N[C@@H](CCC(=O)O)C(=O)N[C@@H](CCCNC(=N)N)C(N)=O` [Ac-ER-NH2] (Ac-Glu-Arg-NH2), the “complex formation between HA306-318 and soluble HLA-DR1 (catalytic activity)” value in test [1] was “No enhancement; also recorded: abrogated the effect”.
